Assay results from the NIST ThermoML archive (doi:10.1016/j.jct.2007.07.005).

Assay: xn = mol fraction of the nth substance listed
Details: Fluid (supercritical or subcritical phases), vibrating tube

CCCCCO [pentan-1-ol] + O=C=O
Details | mass density [kg/m3]
312.96 K, 512 kPa, x2 = 0 | 799.65
312.96 K, 1022 kPa, x2 = 0 | 800.04
312.96 K, 1998 kPa, x2 = 0 | 800.77
312.96 K, 3005 kPa, x2 = 0 | 801.53
312.96 K, 4003 kPa, x2 = 0 | 802.28
312.96 K, 5002 kPa, x2 = 0 | 803.02
312.96 K, 6018 kPa, x2 = 0 | 803.76
312.96 K, 6994 kPa, x2 = 0 | 804.49
312.96 K, 8008 kPa, x2 = 0 | 805.21
312.96 K, 9005 kPa, x2 = 0 | 805.93
312.96 K, 10008 kPa, x2 = 0 | 806.66
312.96 K, 11008 kPa, x2 = 0 | 807.37
312.96 K, 12000 kPa, x2 = 0 | 808.07
312.96 K, 13024 kPa, x2 = 0 | 808.78
312.96 K, 13987 kPa, x2 = 0 | 809.45
312.96 K, 15014 kPa, x2 = 0 | 810.14
312.96 K, 15991 kPa, x2 = 0 | 810.8
312.96 K, 17019 kPa, x2 = 0 | 811.48
312.96 K, 17991 kPa, x2 = 0 | 812.12
312.96 K, 19007 kPa, x2 = 0 | 812.79
312.96 K, 19992 kPa, x2 = 0 | 813.44
312.96 K, 21031 kPa, x2 = 0 | 814.1
312.96 K, 22041 kPa, x2 = 0 | 814.76
312.96 K, 23014 kPa, x2 = 0 | 815.41
312.96 K, 24003 kPa, x2 = 0 | 816.04
312.96 K, 25037 kPa, x2 = 0 | 816.73
313.09 K, 6030 kPa, x2 = 0.3624 | 824
313.09 K, 6997 kPa, x2 = 0.3624 | 825.21
313.09 K, 8012 kPa, x2 = 0.3624 | 826.4
313.09 K, 9018 kPa, x2 = 0.3624 | 827.51
313.09 K, 10006 kPa, x2 = 0.3624 | 828.5
313.09 K, 11027 kPa, x2 = 0.3624 | 829.51
313.09 K, 12043 kPa, x2 = 0.3624 | 830.52
313.09 K, 13029 kPa, x2 = 0.3624 | 831.45
313.09 K, 13978 kPa, x2 = 0.3624 | 832.37
313.09 K, 15011 kPa, x2 = 0.3624 | 833.36
313.09 K, 16002 kPa, x2 = 0.3624 | 834.27
313.09 K, 17008 kPa, x2 = 0.3624 | 835.17
313.09 K, 17989 kPa, x2 = 0.3624 | 836.08
313.09 K, 19002 kPa, x2 = 0.3624 | 837
313.09 K, 20008 kPa, x2 = 0.3624 | 837.88
313.09 K, 21025 kPa, x2 = 0.3624 | 838.76
313.09 K, 21983 kPa, x2 = 0.3624 | 839.58
313.09 K, 23039 kPa, x2 = 0.3624 | 840.51
313.09 K, 24001 kPa, x2 = 0.3624 | 841.34
313.1 K, 7022 kPa, x2 = 0.4651 | 831.11
313.1 K, 8019 kPa, x2 = 0.4651 | 832.63
313.1 K, 9041 kPa, x2 = 0.4651 | 834.14
313.1 K, 10006 kPa, x2 = 0.8067 | 827.85
313.1 K, 10013 kPa, x2 = 0.4651 | 835.54
313.1 K, 10035 kPa, x2 = 0.9757 | 716.11
313.1 K, 11006 kPa, x2 = 0.8067 | 834.45
313.1 K, 11016 kPa, x2 = 0.4651 | 836.96
313.1 K, 11020 kPa, x2 = 0.9757 | 742.56
313.1 K, 11992 kPa, x2 = 0.9757 | 762.5
313.1 K, 12018 kPa, x2 = 0.4651 | 838.32
313.1 K, 12019 kPa, x2 = 0.8067 | 840.12
313.1 K, 13002 kPa, x2 = 0.8067 | 845.06
313.1 K, 13005 kPa, x2 = 0.4651 | 839.67
313.1 K, 13014 kPa, x2 = 0.9757 | 779.62
313.1 K, 13996 kPa, x2 = 0.8067 | 849.67
313.1 K, 14022 kPa, x2 = 0.9757 | 793.9
313.1 K, 14035 kPa, x2 = 0.4651 | 841.03
313.1 K, 15002 kPa, x2 = 0.9757 | 806.06
313.1 K, 15010 kPa, x2 = 0.4651 | 842.33
313.1 K, 15017 kPa, x2 = 0.8067 | 854.05
313.1 K, 16001 kPa, x2 = 0.9757 | 817.16
313.1 K, 16018 kPa, x2 = 0.4651 | 843.63
313.1 K, 16028 kPa, x2 = 0.8067 | 858.11
313.1 K, 17009 kPa, x2 = 0.8067 | 861.86
313.1 K, 17011 kPa, x2 = 0.4651 | 844.89
313.1 K, 17026 kPa, x2 = 0.9757 | 827.46
313.1 K, 17998 kPa, x2 = 0.9757 | 836.37
313.1 K, 18010 kPa, x2 = 0.4651 | 846.15
313.1 K, 18017 kPa, x2 = 0.8067 | 865.48
313.1 K, 18996 kPa, x2 = 0.4651 | 847.39
313.1 K, 19027 kPa, x2 = 0.8067 | 868.98
313.1 K, 19034 kPa, x2 = 0.9757 | 845.17
313.1 K, 19996 kPa, x2 = 0.8067 | 872.2
313.1 K, 20005 kPa, x2 = 0.9757 | 852.85
313.1 K, 20038 kPa, x2 = 0.4651 | 848.66
313.1 K, 20988 kPa, x2 = 0.4651 | 849.83
313.1 K, 20988 kPa, x2 = 0.9757 | 860.09
313.1 K, 21011 kPa, x2 = 0.8067 | 875.4
313.1 K, 21994 kPa, x2 = 0.9757 | 867.1
313.1 K, 22004 kPa, x2 = 0.8067 | 878.43
313.1 K, 22029 kPa, x2 = 0.4651 | 851.07
313.1 K, 22839 kPa, x2 = 0.9757 | 872.7
313.1 K, 22988 kPa, x2 = 0.4651 | 852.24
313.1 K, 22990 kPa, x2 = 0.8067 | 881.33
313.11 K, 3017 kPa, x2 = 0.0816 | 805.83
313.11 K, 4040 kPa, x2 = 0.0816 | 806.66
313.11 K, 5020 kPa, x2 = 0.0816 | 807.44
313.11 K, 6033 kPa, x2 = 0.0816 | 808.27
313.11 K, 6980 kPa, x2 = 0.0816 | 809.01
313.11 K, 8003 kPa, x2 = 0.0816 | 809.81
313.11 K, 9050 kPa, x2 = 0.0816 | 810.62
313.11 K, 10006 kPa, x2 = 0.0816 | 811.35
313.11 K, 10023 kPa, x2 = 0.9216 | 783.1
313.11 K, 11007 kPa, x2 = 0.9216 | 796.3
313.11 K, 11029 kPa, x2 = 0.0816 | 812.13
313.11 K, 12014 kPa, x2 = 0.9216 | 807.61
313.11 K, 12040 kPa, x2 = 0.0816 | 812.89
313.11 K, 13034 kPa, x2 = 0.0816 | 813.62
313.11 K, 13034 kPa, x2 = 0.9216 | 817.54
313.11 K, 14013 kPa, x2 = 0.9216 | 826.1
313.11 K, 14032 kPa, x2 = 0.0816 | 814.36
313.11 K, 15008 kPa, x2 = 0.0816 | 815.08
313.11 K, 15032 kPa, x2 = 0.9216 | 834.15
313.11 K, 16011 kPa, x2 = 0.9216 | 841.25
313.11 K, 16019 kPa, x2 = 0.0816 | 815.8
313.11 K, 17000 kPa, x2 = 0.9216 | 847.91
313.11 K, 17024 kPa, x2 = 0.0816 | 816.51
313.11 K, 18011 kPa, x2 = 0.9216 | 854.26
313.11 K, 18058 kPa, x2 = 0.0816 | 817.22
313.11 K, 18990 kPa, x2 = 0.0816 | 817.88
313.11 K, 19003 kPa, x2 = 0.9216 | 860.12
313.11 K, 20009 kPa, x2 = 0.9216 | 865.74
313.11 K, 20043 kPa, x2 = 0.0816 | 818.6
313.11 K, 20983 kPa, x2 = 0.9216 | 870.88
313.11 K, 21042 kPa, x2 = 0.0816 | 819.28
313.11 K, 22024 kPa, x2 = 0.0816 | 819.97
313.11 K, 23035 kPa, x2 = 0.0816 | 820.66
